# Reference: patent US7160898B2, “Pharmacological treatment for sleep apnea” (Board of Trustees of The University of Illinois, priority 2002, dated 2007)
# Columns and labels:
# [1] = system: 5-hydroxytryptamine receptors; conditions: anesthetized animals, cited from earlier work; for apnea after intravenous administration: duration increased dose-dependently
# sleep apnea syndrome = conditions: cited from earlier work; for effect in patients with sleep apnea: literature reports
# [2] = system: animal model of sleep apnea; conditions: U.S. Pat. No. 5,075,290; cited from earlier work
# [3] = system: spontaneous sleep-related central apneas; test: Induction and suppression of sleep apneas by serotonin and GR38032F (Example 3); assay type: in vivo, rat (Sprague-Dawley); conditions: 6 hour recording
# Experimental: Ten adult male Sprague-Dawley rats (Sasco-King, Wilmington, Mass.; 300 g) were maintained on a 12-h light (08:00–20:00 hour)/12-hour dark (20:00–08:00) cycle for one week, housed in individual cages, and given ad libitum access to food and water. Following the one week of acclimatization, animals were prepared for physiological testing via the surgical procedures (i.e., implantation of cortical electrodes for EEG recording and neck muscle electrodes for EMG recording, implantation of a radiotelemetry transmitter for BP and HP monitoring) as set forth above in Example 1. After completion of the surgical procedures, animals were allowed a one week recovery period prior to use in the present study. Each animal was recorded on four occasions, with recordings for an individual animal separated by at least three days. Fifteen minutes prior to each recording, each animal received (via intraperitoneal injection), in random order, one of the following: (a) saline solution (control); (b) 0.79 mg/kg serotonin; (c) 0.1 mg/kg GR38032F plus 0.79 mg/kg serotonin; or (d) 0.1 mg/kg GR38032F. For the GR38032F+serotonin test group, 0.1 mg/kg GR38032F was administered at time 09:30 followed by 0.79 mg/kg serotonin at time 09:45. Polygraphic recordings were made from 10:00–16:00. Respiration BP, EEG, and EMG data were determined and recorded via the experimental procedure as specifically set forth above in Example 2. As in Example 2, sleep apneas, defined as cessation of respiratory effort for at least 2.5 s, were scored for each recording session and were associated with the stage in which they occurred: NREM or REM sleep. The duration requirement of 2.5 s represents at least two “missed” breaths, which is analogous to a 10-s apnea duration requirement in humans. The effects of sleep stage (NREM vs REM) and injection (control vs. administration of either serotonin alone, GR38032F+serotonin, or GR38032F alone) on apnea indexes, respiratory pattern, BP, and HP were tested using analysis of variance (ANOVA) with repeated measures. Multiple comparisons were controlled using Fisher's protected least-significance difference (PLSD). One-way ANOVA was also performed by nonparametric (Kruskal-Wallis) analysis. Conclusions using parametric and nonparametric ANOVA were identical in all cases.
# sleep/wake architecture = test: Sleep/wake architecture after 5-HT and GR38032F (Example 3); assay type: in vivo, rat (Sprague-Dawley); conditions: i.p.
# Experimental: Sleep and waking states were assessed using the biparietal EEG and nuchal EMG signals on 10-second epochs as described by Bennington et al. [Sleep, 17:28–36 (1994)]. This software discriminated wakefulness (W) as a high frequency low amplitude EEG with a concomitant high EMG tone, NREM sleep by increased spindle and […] activity together with decreased EMG tone, and REM sleep by a […] activity and an absence of EMG tone. Sleep efficiency was measured as the percentage of total recorded epochs staged as NREM or REM sleep.
# (§1) Each animal was recorded on four occasions, with recordings for an individual animal separated by at least three days. Fifteen minutes prior to each recording, each animal received (via intraperitoneal injection), in random order, one of the following: (a) saline solution (control); (b) 0.79 mg/kg serotonin; (c) 0.1 mg/kg GR38032F plus 0.79 mg/kg serotonin; or (d) 0.1 mg/kg GR38032F. For the GR38032F+serotonin test group, 0.1 mg/kg GR38032F was administered at time 09:30 followed by 0.79 mg/kg serotonin at time 09:45. Polygraphic recordings were made from 10:00–16:00.
# (§2) Respiration BP, EEG, and EMG data were determined and recorded via the experimental procedure as specifically set forth above in Example 2. As in Example 2, sleep apneas, defined as cessation of respiratory effort for at least 2.5 s, were scored for each recording session and were associated with the stage in which they occurred: NREM or REM sleep. The duration requirement of 2.5 s represents at least two “missed” breaths, which is analogous to a 10-s apnea duration requirement in humans.
# (§3) The effects of sleep stage (NREM vs REM) and injection (control vs. administration of either serotonin alone, GR38032F+serotonin, or GR38032F alone) on apnea indexes, respiratory pattern, BP, and HP were tested using analysis of variance (ANOVA) with repeated measures. Multiple comparisons were controlled using Fisher's protected least-significance difference (PLSD). One-way ANOVA was also performed by nonparametric (Kruskal-Wallis) analysis. Conclusions using parametric and nonparametric ANOVA were identical in all cases.
# RR, VE, mean BP, HP = test: Respiratory pattern, BP and HP after serotonin and GR38032F (Example 3); assay type: in vivo, rat (Sprague-Dawley)
# Experimental: Similar software (Experimenters' Workbench; Datawave Technologies, Longmont, Colo.) was employed to analyze the blood pressure waveform; for each beat of each recording, systolic (SBP) and diastolic (DBP) blood pressures and pulse interval were measured. The pulse interval provided a beat by beat estimate of HP. Mean BP (MBP) was estimated according to the weighted average of SBP and DBP for each beat: MBP=DBP+(SBP−DBP)/3. The parameters for each beat were also classified according to the sleep/wake state and recording hour during which they occurred.
# as §1, §2
# as §3, with “Conclusions using parametric and nonparametric ANOVA were identical in all cases.” left out
# [4] = percent recording time, 6 hours, 5-HT 0.79 mg/kg, GR38032F 0.1 mg/kg, mean ± SE
molecule,measurement,setting,value
Cc1[nH]c2ccc(O)cc2c1CCN [2-methyl-5-hydroxytryptamine],apnea after intravenous administration,[1],produced transient apnea
N[C@@H](Cc1c[nH]c2ccccc12)C(=O)O [L-tryptophan],effect in patients with sleep apnea,sleep apnea syndrome,may have a beneficial effect on sleep apnea syndrome
CNCCCC1c2ccccc2C=Cc2ccccc21 [Protriptyline],effect in patients with sleep apnea,sleep apnea syndrome,variable results and frequent and significant side effects
CC(N)Cc1c[nH]c2ccc(O)cc12 (centres unmarked) [a-methyl-5-hydroxytryptamine],apnea after intravenous administration,[1],produced transient apnea
CC(=O)Nc1nnc(S(N)(=O)=O)s1 [acetazolamide],effect in patients with sleep apnea,sleep apnea syndrome,variable improvement in individuals with primary central apneas but caused an increase in obstructive apneas
Nc1ncnc2c1ncn2[C@@H]1O[C@H](CO)[C@@H](O)[C@H]1O [adenosine],reduction of apnea,[2],somewhat effective in reducing apnea
O=C1CC2(CCCC2)CC(=O)N1CCCCN1CCN(c2ncccn2)CC1 [buspirone],patients with sleep apnea syndrome with reduced apnea index,sleep apnea syndrome; Mendelson et al. 1991,4 of 5
same,effect in patients with sleep apnea,sleep apnea syndrome,eliminate post-surgical apneustic breathing in one child
CCN1CC(CCN2CCOCC2)C(c2ccccc2)(c2ccccc2)C1=O (centres unmarked) [doxapram],effect in patients with sleep apnea,sleep apnea syndrome,decrease the length of apneas but did not alter the average arterial oxygen saturation
CNCCC(Oc1ccc(C(F)(F)F)cc1)c1ccccc1 (centres unmarked) [fluoxetine],effect in patients with sleep apnea,sleep apnea syndrome,benefit some but not all patients with sleep apnea syndrome
O=C(c1ccc(F)cc1)C1CCN(CCn2c(=O)[nH]c3ccccc3c2=O)CC1 [ketanserine],antagonism of agonist-induced transient apnea,[1],significantly antagonized
CC[C@@H](CO)NC(=O)[C@@H]1C=C2c3cccc4c3c(cn4C)C[C@H]2N(C)C1 [methysergide],antagonism of agonist-induced transient apnea,[1],significantly antagonized
C=CCN1CC[C@]23c4c5ccc(O)c4O[C@H]2C(=O)CC[C@@]3(O)[C@H]1C5 [naloxone],effect in patients with sleep apnea,sleep apnea syndrome,only slightly helpful
Fc1ccc([C@@H]2CCNC[C@H]2COc2ccc3c(c2)OCO3)cc1 [paroxetine],effect in patients with sleep apnea,sleep apnea syndrome,benefit some but not all patients with sleep apnea syndrome
"NCCc1c[nH]c2ccc(O)cc12 [serotonin, 5-hydroxytryptamine]",spontaneous apnea index during NREM sleep,"[3]; i.p., serotonin 0.79 mg/kg, GR38032F 0.1 mg/kg",not affected by any drug treatment
same,increase of spontaneous apnea expression during REM sleep compared to control,[3]; serotonin 0.79 mg/kg i.p.,> 250%
same,effect on sleep architecture,sleep/wake architecture; 6 hours of polygraphic recording,had no effect on sleep architecture
same,% NREM,sleep/wake architecture; [4],59.9 ± 3.3%
same,% REM,sleep/wake architecture; [4],6.5 ± 1.1%
same,% Wakefulness,sleep/wake architecture; [4],30.2 ± 3.2%
same,"effect on RR, VE, mean BP, HP, or PS apnea index","RR, VE, mean BP, HP; i.p., serotonin 0.79 mg/kg, GR38032F 0.1 mg/kg, data not shown","had no effect on sleep, cardiovascular variables, RR, or VE"
same,beat-to-beat heart rate and BP variability (coefficients of variation),"RR, VE, mean BP, HP; serotonin 0.79 mg/kg i.p.",unaffected
same,changes in heart rate or mean BP,"RR, VE, mean BP, HP; serotonin 0.79 mg/kg i.p., 6 hour recording period",did not elicit changes in either heart rate or mean BP
same,apnea after intravenous administration,[1],produced transient apnea
Cn1c(=O)c2[nH]cnc2n(C)c1=O [theophylline],effect in patients with sleep apnea,sleep apnea syndrome,may benefit patients with central apnea but appears to be of no use in adult patients with obstructive apnea
medroxyprogesterone,effect in patients with sleep apnea,sleep apnea syndrome,no consistent benefit in OSAS
